Like-named read-outs stand apart in the source and are kept apart here.
Key:
ATN-1 = experiment: In vitro human tumor cell line cytotoxicity assay; type: cell-based; conditions: read-out: RelIC50
Description: (§1) TH 2870, TH 3423 and TH 3424 was also tested in different cancer cell lines using the materials and procedures as follows. 10* cell lysate buffer (cell signaling technology, Cat. No.9803); Protease Inhibitor Cocktail for Mammalian Tissues (Sigma, Cat. No.P8340); Phosphatase Inhibitor Cocktails for Serine/Threonine Phosphatases and L-Isozymes of Alkaline Phosphatases (Sigma, Cat. No.P0044); Phosphatase Inhibitor Cocktails for Tyrosine Protein Phosphatases, Acid and Alkaline Phosphatases (Sigma, Cat. No.P5726); BCA kit (Thermo, Cat. No.23225); Primary antibody, mouse monoclonal AKR1C3 antibody (clone NP6.G6.A6; Sigma-Aldrich); Primary antibody, α-tubulin (clone B-5-1-2; Sigma-Aldrich); Secondary antibody, Goat-anti-Mouse IgG HRP conjugated (A4416; Sigma-Aldrich) were used. Cells were passaged two generations in good condition and digested. The appropriate number of cells were inoculated in 6-cm cell culture dishes, and incubated at 37°C, 5% CO2 overnight. When the cells were grown to 80% density, the dish was removed from incubator. The medium was aspirated, washed twice with ice-cold PBS, and residual PBS was removed. An appropriate volume of ice-cold 1* cell lysate was added and incubated on ice for 10 minutes. Cell lysate was transferred to microfuge tubes chilled in ice, 4 °C, 12,000 rpm and centrifuged for 15 minutes. Supernatant was transferred into another microcentrifuge tube. Cell lysates were diluted by a 10* cell lysates, and add Protease Inhibitor Cocktail for Mammalian Tissues (Sigma, # P8340), Phosphatase Inhibitor Cocktails for Serine / Threonine Phosphatases and L-Isozymes of Alkaline Phosphatases, Phosphatase Inhibitor Cocktails for Tyrosine Protein Phosphatases, Acid and Alkaline Phosphatases. The BCA protein quantification kit for protein quantification was used with 1* cell lysate to dilute the cell lysate to the same concentration. Corresponding samples were added on 5* SDS-loading buffer, heated to 85 °C for 10 minutes, and centrifuged briefly. The samples were saved at -20 °C or used directly for protein electrophoresis. Those samples were electrophoresed according to standard practice, transferred to a membrane, the primary antibodies and then secondary antibody were applied according to the manufacturer's instructions. Odyssey infrared laser imaging system was used to scan signals.
(§2) The results are shown below in Figs. 3 and 4 and listed in the following tables: Table: TH 2870, TH 3423 and TH 3424 sensitivity in liver, prostate, esophageal cancer and leukemia cell lines

CCRF-CEM = experiment: In vitro human tumor cell line cytotoxicity assay; type: cell-based; conditions: read-out: RelIC50
Description: as §1, §2

HL-60 = experiment: In vitro human tumor cell line cytotoxicity assay; type: cell-based; conditions: read-out: RelIC50
Description: as §1, §2

KYSE 510 = experiment: In vitro human tumor cell line cytotoxicity assay; type: cell-based; conditions: read-out: RelIC50
Description: as §1, §2

Mono-Mac-6_ = experiment: In vitro human tumor cell line cytotoxicity assay; type: cell-based; conditions: read-out: RelIC50
Description: as §1, §2

OE 33 = experiment: In vitro human tumor cell line cytotoxicity assay; type: cell-based; conditions: OE33, read-out: RelIC50
Description: as §1, §2

P116 = experiment: In vitro human tumor cell line cytotoxicity assay; type: cell-based; conditions: read-out: RelIC50
Description: as §1, §2

PF-382 = experiment: In vitro human tumor cell line cytotoxicity assay; type: cell-based; conditions: read-out: RelIC50
Description: as §1, §2

Reh 3 = experiment: In vitro human tumor cell line cytotoxicity assay; type: cell-based; conditions: read-out: RelIC50
Description: as §1, §2

SUP-T1 = experiment: In vitro human tumor cell line cytotoxicity assay; type: cell-based; conditions: read-out: RelIC50
Description: as §1, §2

TE-11 = experiment: In vitro human tumor cell line cytotoxicity assay; type: cell-based; conditions: read-out: RelIC50
Description: as §1, §2

TE-15 = experiment: In vitro human tumor cell line cytotoxicity assay; type: cell-based; conditions: read-out: RelIC50
Description: as §1, §2

TE-5 = experiment: In vitro human tumor cell line cytotoxicity assay; type: cell-based; conditions: read-out: RelIC50
Description: as §1, §2

THP-1_ = experiment: In vitro human tumor cell line cytotoxicity assay; type: cell-based; conditions: read-out: RelIC50
Description: as §1, §2

TE-4 = experiment: In vitro human tumor cell line cytotoxicity assay; type: cell-based; conditions: read-out: RelIC50
KYSE 70 = experiment: In vitro human tumor cell line cytotoxicity assay; type: cell-based; conditions: read-out: RelIC50
TF-1 = experiment: In vitro human tumor cell line cytotoxicity assay; type: cell-based; conditions: read-out: RelIC50
[1] = Body weight and toxicity in the orthotopic liver cancer mouse model; type: in vivo, athymic nude mice; conditions: intra-peritoneal, low or high dose (2.5 and 5 mg/kg)
[2] = Pharmacokinetics (TK) after 30-min IV infusion in monkeys; type: in vivo, Cynomolgus monkeys; conditions: 2 mg/kg 30-min IV infusion; for MRT inf / clearance / half-life / Vd / concentration at 0.25 hr / concentration at 0.5 hr / concentration at 0.75 hr / concentration at 1 hr / concentration at 2 hr: cynomolgus monkey, plasma; for half-life: read-out: Terminal t1/2 (converted); for Vd: read-out: Vss
Description: (§3) TH 3423 and TH 3424 were tested in no naive monkeys (1 male and one female for each compound at 2 mg/kg) with 30-min intravenous infusion, TK sampling: on Day 1 and Day 15: 0.25, 0.5, 0.75, 1 and 2 hr post infusion initiation. Serum chemistry and hematology: pre-dose (Day 1), day 5, day 8 (pre-dose), day 15 (pre-dose), day 22 and day 28. Clinical observation: Daily during the study, total 35 days. Food consumption: Daily during the study, total 35 days. Bodyweight measurement: Twice weekly for five weeks.

[3] = Acute toxicity study in monkeys, body weight; type: in vivo, Cynomolgus monkeys; set-up: unit not given here; conditions: 2 mg/kg IV infusion
Description: as §3

[4] = both sexes, mean, read-out: Plasma concentration, Mean
[5] = female, read-out: Plasma concentration
[6] = male, read-out: Plasma concentration

C[C@H](OP(=O)(N1CC1)N1CC1)c1ccc([N+](=O)[O-])c(Oc2cccc(C(=O)N(C)C)c2)c1 (single isomer, unassigned) [TH3424]
IC50 (ATN-1): 29.8 nM | IC50 (CCRF-CEM): 3.7 nM | IC50 (HL-60): 3 nM | IC50 (KYSE 510): 180 nM | IC50 (Mono-Mac-6_): > 1000 nM | IC50 (OE 33): 84 nM | IC50 (P116): 84 nM | IC50 (PF-382): 15 nM | IC50 (Reh 3): 3 nM | IC50 (SUP-T1): 3 nM | IC50 (TE-11): 2.7 nM | IC50 (TE-15): 2.9 nM | IC50 (TE-5): 33 nM | IC50 (THP-1_): > 1000 nM | IC50 (TE-4): 9.9 nM | IC50 (KYSE 70): 33 nM | IC50 (TF-1): 28 nM | toxicity to the experimental mice [1]: no obvious toxicity | toxicity to the experimental mice ([1]; listed as TH2870-2): no obvious acute toxicity | AUCINF ([2]; Mean): 1461 hr^∗ng/mL | AUClast ([2]; Mean): 1459 hr^∗ng/mL | MRT inf ([2]; both sexes, Mean): 13.9 min | clearance ([2]; both sexes, Mean): 23.7 mL/min/kg | half-life ([2]; both sexes, Mean): 10.9 min | Vd ([2]; both sexes, Mean): 0.325 L/kg | concentration at 0.25 hr [2, 4]: 2160 ng/mL | concentration at 0.5 hr [2, 4]: 2400 ng/mL | concentration at 0.75 hr [2, 4]: 794 ng/mL | concentration at 1 hr [2, 4]: 185 ng/mL | concentration at 2 hr [2, 4]: 5.64 ng/mL | concentration at 0.25 hr [2, 5]: 1850 ng/mL | concentration at 0.5 hr [2, 5]: 2090 ng/mL | concentration at 0.75 hr [2, 5]: 557 ng/mL | concentration at 1 hr [2, 5]: 110 ng/mL | concentration at 2 hr [2, 5]: 3.84 ng/mL | MRT inf ([2]; female): 12.9 min | clearance ([2]; female): 27.8 mL/min/kg | half-life ([2]; female): 10.9 min | Vd ([2]; female): 0.36 L/kg | concentration at 0.25 hr [2, 6]: 2480 ng/mL | concentration at 0.5 hr [2, 6]: 2720 ng/mL | concentration at 0.75 hr [2, 6]: 1030 ng/mL | concentration at 1 hr [2, 6]: 260 ng/mL | concentration at 2 hr [2, 6]: 7.43 ng/mL | MRT inf ([2]; male): 15 min | clearance ([2]; male): 19.3 mL/min/kg | half-life ([2]; male): 10.9 min | Vd ([2]; male): 0.289 L/kg | AUCINF ([2]; female): 1196 hr^∗ng/mL | AUClast ([2]; female): 1195 hr^∗ng/mL | AUCINF ([2]; male): 1726 hr^∗ng/mL | AUClast ([2]; male): 1724 hr^∗ng/mL | body weight ([3]; Mean, Day 1): 3.34 | body weight ([3]; Mean, Day 4): 3.26 | body weight ([3]; Mean, Day 8): 3.20 | body weight ([3]; Mean, Day 11): 3.06 | body weight ([3]; female, Day 1): 3.28 | body weight ([3]; female, Day 4): 3.22 | body weight ([3]; female, Day 8): 3.08 | body weight ([3]; female, Day 11): 2.94 | body weight ([3]; male, Day 1): 3.40 | body weight ([3]; male, Day 4): 3.30 | body weight ([3]; male, Day 8): 3.31 | body weight ([3]; male, Day 11): 3.17

From EP3390415B1, “(R)- AND (S)-1-(3-(3-N,N-DIMETHYLAMINOCARBONYL)PHENOXYL-4-NITROPHENYL)-1-ETHYL-N,N'-BIS (ETHYLENE)PHOSPHORAMIDATE, COMPOSITIONS AND METHODS FOR THEIR USE AND PREPARATION” (OBI PHARMA, INC., priority 2015, dated 2017)
